Where two headings read alike, the source gives them in different places. *1 amine or outer side, *2 acyl side, *3 side chain or, on linkers, in order; H or OH if unused. Where a SMILES comes first, the peptide text is derived from it. Bridges are numbered along the chain shown (N, C = ends). [ ]: non-standard residue; d: D form. The star is where a group is joined. pTerphenylCO(4''-OnC5H11) = CCCCCOc1ccc(-c2ccc(-c3ccc(C(=O)*)cc3)cc2)cc1; Orn(4R-OH,5R-OH) = O=C([C@H](C[C@@H](O)[C@@H](O)N[*:3])N[*:1])[*:2]; hTyr(3S-OH,4S-OH) = N[C@H](C(=O)O)[C@H](O)[C@@H](O)c1ccc(O)cc1; Pro(3S-OH,4S-Me) = C[C@H]1CN[C@H](C(=O)O)[C@H]1O; Hyp = O=C(O)[C@@H]1C[C@@H](O)CN1

For series [1], the system named is Aspergillus flavus ATCC 28539. The experiment in a line: MEC assay (CLSI M38-A2), Aspergillus flavus ATCC 28539. To be noted: first batch; 28° C., 21-26 h. The class given is cell-based. The protocol:
(§1) After a test compound was serially diluted, an MIC (minimum inhibitory concentration) assay was performed on the standard Candida strain and an MEC (minimum effective concentration) assay on the standard Aspergillus strain. The MIC assay was performed according to the guidelines of the Clinical and Laboratory Standards Institute (CLSI M27-A3) and the MEC assay according to the guidelines of the Clinical and Laboratory Standards Institute (CLSI M38-A2).
Aspergillus was passaged onto an SDA plate and cultured at 35° C. for 48 h to 7 d to induce sporulation. Colonies on the plate were covered with about 1 mL of 0.85% normal saline or sterile water (polysorbate 20 was added at a final concentration of 0.1%-0.01%). The medium was gently wiped on its surface with a tip or a sterile cotton swab (be careful not to break the medium), and the spore hyphae suspension was transferred to a sterile tube and let stand for 3-5 min so that the heavy particles settled. The homogeneous upper layer of the suspension was transferred to a new sterile tube, which was then sealed and vortexed for 15 s (be careful as the suspension may produce an aerosol when the cover is removed). The concentration of the suspension was adjusted until an OD value of 0.09-0.13 was achieved using a spectrophotometer at 530 nm. The suspension was 50-fold diluted with 1×RPMI 1640. 100 μL of sample was added to each well of the 96-well plate within 2 h after dilution (the final spore concentration in the susceptibility testing plate was at 0.4×10^4 to 5×10^4 CFU/mL).
Colony counting: The suspension diluted with RPMI 1640 was further diluted 10-fold, and 10 μL of the dilution was applied to an SDA plate, cultured at 28° C., and observed every day; colonies were immediately counted upon being visible to the naked eye.
(§2) For echinocandin drugs, Aspergillus was incubated at 28° C. for 21-26 h, and then the MEC results were read.
• Yeast-type fungi: A disposable sealing film was applied to the 96-well plate, and the mixture was well mixed by shaking. Observation was performed through a plate reader with the naked eye. Comparisons were made to the growth control, and the minimum compound concentration corresponding to ≥50% growth inhibition was defined as MIC. Pictures were taken and saved using an automatic plate reader. • Aspergillus: For echinocandin drugs, comparisons were made to the growth control under a plate reader, and the minimum drug concentration that could cause the hyphae to form small, round, compact hyphal particles was defined as MEC. For accurate determination of MEC values, the plate must not be vortexed before reading.

Series [2] is described as follows: Pharmacokinetic study after single intravenous injection. The class given is in vivo, SD rats. To be noted: Sprague-Dawley, rat, plasma, 10 mg/kg i.v.; for AUC(0-t): read-out: AUC0-96; for Vd: read-out: VdSS. The protocol: (§3) 12 SD rats were divided into 2 groups of 6 (half are male and half female). […] The body weights were measured once before administration. Administration was performed by single intravenous injection for 20 min per animal. PK measurement was performed once before administration and 5 min, 30 min, 1 h, 4 h, 8 h, 24 h, 48 h, 72 h and 96 h after administration. A histamine assay was performed once before administration and 30 min, 4 h, 8 h and 24 h after administration.

The subject of a further series is plasma histamine. The experiment in a line: Plasma histamine assay after single intravenous injection. The class given is in vivo, SD rats. The protocol: as §3
Series [3] relates to Candida tropicalis ATCC 750. The experiment in a line: MIC assay (CLSI M27-A3), Candida tropicalis ATCC 750. The class given is cell-based. To be noted: first batch; 24 h, ≥50% growth inhibition. The protocol: as §1
(§4) The frozen strain was passaged at least twice, and a single colony was picked and resuspended in normal saline or sterile water in a tube. […]
as §2
(§5) • Yeast-type fungi: A disposable sealing film was applied to the 96-well plate, and the mixture was well mixed by shaking. Observation was performed through a plate reader with the naked eye. […] Pictures were taken and saved using an automatic plate reader. • Aspergillus: For echinocandin drugs, comparisons were made to the growth control under a plate reader, and the minimum drug concentration that could cause the hyphae to form small, round, compact hyphal particles was defined as MEC. For accurate determination of MEC values, the plate must not be vortexed before reading.

In series [4] the test system is Candida albicans ATCC 90029. The experiment in a line: MIC assay (CLSI M27-A3), Candida albicans ATCC 90029. In kind it is cell-based. As to conditions: first batch; 24 h, ≥50% growth inhibition. The protocol:
as §1, §4, §2, §5

The test system of series [5] is Candida parapsilosis ATCC 22019. The experiment in a line: MIC assay (CLSI M27-A3), Candida parapsilosis ATCC 22019. The class given is cell-based. To be noted: first batch; 24 h, ≥50% growth inhibition; quality control strain. The protocol: as §1, §4, §2, §5
In series [6] the test system is Meyerozyma guilliermondii ATCC 6260. The experiment in a line: MIC assay (CLSI M27-A3), Meyerozyma guilliermondii ATCC 6260. In kind it is cell-based. To be noted: first batch; 24 h, ≥50% growth inhibition. The protocol:
as §1, §4, §2, §5

Another series concerns Candida krusei ATCC 6258. The experiment in a line: MIC assay (CLSI M27-A3), Candida krusei ATCC 6258. In kind it is cell-based. As to conditions: first batch; 24 h, ≥50% growth inhibition; quality control strain. The protocol: as §1, §4, §2, §5
For series [7], the system named is Candida glabrata ATCC 15126. The experiment in a line: MIC assay (CLSI M27-A3), Candida glabrata ATCC 15126. In kind it is cell-based. To be noted: first batch; 24 h, ≥50% growth inhibition. The protocol:
as §1, §4, §2, §5

In a further series the test system is SD rats. The experiment in a line: General state observation after single intravenous injection. The class given is in vivo. As to conditions: 10 mg/kg single intravenous injection, day of administration. The protocol: as §3
Series [8] deals with Candida albicans (azole drug-resistant strain) R357. The experiment in a line: MIC assay (CLSI M27-A3), Candida albicans azole drug-resistant strain R357. As to conditions: second batch; 24 h. In kind it is cell-based. The protocol: as §1, §4, §2, §5
Series [9] concerns Candida albicans ATCC 90028. The experiment in a line: MIC assay (CLSI M27-A3), Candida albicans ATCC 90028. In kind it is cell-based. To be noted: second batch. The protocol: as §1, §4, §2, §5
The test system of series [10] is Candida glabrata ATCC 36583. The experiment in a line: MIC assay (CLSI M27-A3), Candida glabrata ATCC 36583. As to conditions: second batch; 24 h. The class given is cell-based. The protocol: as §1, §4, §2, §5
Series [11] deals with Candida albicans ATCC 44858. The experiment in a line: MIC assay (CLSI M27-A3), Candida albicans ATCC 44858. The class given is cell-based. To be noted: second batch; 24 h. The protocol:
as §1, §4, §2, §5

For series [12], the system named is Candida tropicalis (amphotericin-resistant strain) ATCC 200956. The experiment in a line: MIC assay (CLSI M27-A3), Candida tropicalis amphotericin-resistant strain ATCC 200956. In kind it is cell-based. To be noted: second batch; 24 h. The protocol: as §1, §4, §2, §5
Series [13] relates to Candida albicans (azole drug-resistant strain) R358. The experiment in a line: MIC assay (CLSI M27-A3), Candida albicans azole drug-resistant strain R358. In kind it is cell-based. To be noted: second batch; 24 h. The protocol:
as §1, §4, §2, §5

As to `CCCCCOc1ccc(-c2ccc(-c3ccc(C(=O)N[C@H]4C[C@@H](O)[C@@H](O)NC(=O)[C@@H]5[C@@H](O)[C@@H](C)CN5C(=O)[C@H]([C@@H](C)O)NC(=O)[C@H]([C@H](O)[C@@H](O)c5ccc(O)cc5)NC(=O)[C@@H]5C[C@@H](O)CN5C(=O)[C@H]([C@@H](C)O)NC4=O)cc3)cc2)cc1` [Anidulafungin] ({pTerphenylCO(4''-OnC5H11)}-[Orn(4R-OH,5R-OH)]T[Hyp][hTyr(3S-OH,4S-OH)]T[Pro(3S-OH,4S-Me)]; lactam 1-C), the “MEC Aspergillus flavus ATCC 28539” value in series [1] stood at 0.031 µg/mL.
By AUC(0-inf) is commonly meant the area under the concentration-time curve extrapolated to infinity. A higher AUC(0-inf) goes with high exposure. What is called Cmax is the peak of the concentration-time curve. Broadly, the clearance is the volume of plasma or blood freed of the substance per unit of time. By half-life is commonly meant how long it takes for the measured level to halve. Low readings indicate fast loss, high ones slow loss. `CCCCCOc1ccc(-c2ccc(-c3ccc(C(=O)N[C@H]4C[C@@H](O)[C@@H](OC[C@H]5CCC[N+]5(C)C)NC(=O)[C@@H]5[C@@H](O)[C@@H](C)CN5C(=O)[C@H]([C@@H](C)O)NC(=O)[C@H]([C@H](O)[C@@H](O)c5ccc(O)cc5)NC(=O)[C@@H]5C[C@@H](O)CN5C(=O)[C@H]([C@@H](C)O)NC4=O)cc3)cc2)cc1` [Compound of formula (I)]: in series [2] (female SD rats), the AUC(0-inf) came to 195 µg·h/mL, the highest level (Cmax) was 9300 ng/mL, the clearance turned out to be 0.9 mL/min/kg and the half-life was 25.5 h. In series [2] (female SD rats), the AUC(0-t) turned out to be 180 µg·h/mL and the Vd worked out at 1.8 L/kg. In addition, in series [2] (male SD rats), the AUC(0-inf) was determined as 191 µg·h/mL, the Cmax was 8000 ng/mL, the clearance is 0.9 mL/min/kg and the half-life is 27.7 h. Besides, in [2] (male SD rats), the AUC(0-t) was 174 µg·h/mL and the Vd worked out at 1.9 L/kg. The “MEC Aspergillus flavus ATCC 28539” value in [1] was determined as 0.031 µg/mL. The “ability to induce increases in the histamine level in rats” value in the series with plasma histamine (same dose (10 mg/kg) i.v., compared with rezafungin acetate) was “significantly lower”.
Caspofungin acetate: the “MIC Candida tropicalis ATCC 750” value in [3] worked out at 0.016 µg/mL. Also, the “MIC Candida albicans ATCC 90029” value in series [4] amounted to 0.063 µg/mL. Besides, the “MIC Candida parapsilosis ATCC 22019” value in series [5] came out at 1 µg/mL. For the same compound, in series [6], the “MIC Meyerozyma guilliermondii ATCC 6260” value came to 1 µg/mL. Also, the “MIC Candida krusei ATCC 6258” value in the series on Candida krusei ATCC 6258 is 1 µg/mL. In series [7], the “MIC Candida glabrata ATCC 15126” value amounted to 0.25 µg/mL. Moreover, the “MEC Aspergillus flavus ATCC 28539” value in series [1] amounted to 0.031 µg/mL.
For Rezafungin acetate, the general state observation result with SD rats is on record as “transient slight decrease in activity occurred in 2 females”. Also, in [3], the “MIC Candida tropicalis ATCC 750” value worked out at 0.016 µg/mL. For the same compound, in series [4], the “MIC Candida albicans ATCC 90029” value came to 0.125 µg/mL. Also, the “MIC Candida parapsilosis ATCC 22019” value in [5] stood at 2 µg/mL. Also, the “MIC Candida albicans (azole drug-resistant strain) R357” value in [8] came out at 0.25 µg/mL. Besides, the “MIC Meyerozyma guilliermondii ATCC 6260” value in series [6] stood at 2 µg/mL. In addition, in the series on Candida krusei ATCC 6258, the “MIC Candida krusei ATCC 6258” value amounted to 0.25 µg/mL. The “MIC Candida albicans ATCC 90028” value in series [9] (24 h) came out at 0.25 µg/mL. In addition, in [9] (+ 50% human serum), the “MIC Candida albicans + 50% human serum ATCC 90028” value turned out to be 0.25 µg/mL. Further, in series [10], the “MIC Candida glabrata ATCC 36583” value is 0.25 µg/mL. In series [7], the “MIC Candida glabrata ATCC 15126” value is 0.125 µg/mL. Also, in series [11], the “MIC Candida albicans ATCC 44858” value stood at 0.25 µg/mL. For the same compound, the “MEC Aspergillus flavus ATCC 28539” value in series [1] stood at 0.031 µg/mL. The “MIC Candida tropicalis (amphotericin-resistant strain) ATCC 200956” value in [12] was determined as 0.25 µg/mL. Besides, the “fold higher mean plasma histamine concentration than group 1” value in the series with plasma histamine (30 min after administration, 10 mg/kg i.v., p=0.046) came out at 4.5 times. For the same compound, the “MIC Candida albicans (azole drug-resistant strain) R358” value in [13] was 0.25 µg/mL.
